Literature values as cited in patent US12678407B2 (HANMI PHARM. CO., LTD., priority 2020, dated 2026).

Settings: according to FDA Clinical Pharmacology Biopharmaceutics Review

Row | Compound | bioavailability [%]
1 | N[C@@H](CC(=O)N1CCn2c(nnc2C(F)(F)F)C1)Cc1cc(F)c(F)cc1F [sitagliptin, (R)-3-amino-1-(3-(trifluoromethyl)-5,6-dihydro-[1,2,4]triazole[4,3-a]pyrazin-7(8H)-yl)-4-(2,4,5-trifluorophenyl)butan-1-one] | 78
2 | CCOc1ccc(Cc2cc([C@@H]3O[C@H](CO)[C@@H](O)[C@H](O)[C@H]3O)ccc2Cl)cc1 [dapagliflozin, (2S,3R,4R,5S,6R)-2-[4-chloro-3-(4-ethoxybenzyl)phenyl]-6-(hydroxymethyl)tetrahydro-2H-pyran-3,4,5-triol] | 87
